Measured values reported in ChEMBL document CHEMBL1201862, “PubChem BioAssay data set” (2004).
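Dose response: 5 concentrations. Exposure: 48 h. Format: 96-well plates. Endpoint: linear interpolation; highest concentration if not reached. GI50 marks 50% less growth.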 Activity calls are given as the source filed them. Cut-off read from the data, not from the text of the source: active = GI50 up to about 1.1 µM and inactive = higher.

Tests used:
Test in all cases: NCI tumour cell line growth inhibition, 48 h
786-0 = tested on: 786-0
NCI/ADR-RES = tested on: NCI/ADR-RES
MCF7 = tested on: MCF7
NCI-H23 = tested on: NCI-H23
KM12 = tested on: KM12
TK-10 = tested on: TK-10
MDA-N = tested on: MDA-N
SN12C = tested on: SN12C
CAKI-1 = tested on: CAKI-1
DU-145 = tested on: DU-145
NCI-H226 = tested on: NCI-H226
NCI-H522 = tested on: NCI-H522
OVCAR-3 = tested on: OVCAR-3
HOP-62 = tested on: HOP-62
RXF 393 = tested on: RXF 393
LOX IMVI = tested on: LOX IMVI
CCRF-CEM = tested on: CCRF-CEM
MOLT-4 = tested on: MOLT-4
UACC-62 = tested on: UACC-62

Compound | GI50 (786-0) | GI50 (NCI/ADR-RES) | GI50 (MCF7) | GI50 (NCI-H23) | GI50 (KM12) | GI50 (TK-10) | GI50 (MDA-N) | GI50 (SN12C) | GI50 (CAKI-1) | GI50 (DU-145) | GI50 (NCI-H226) | GI50 (NCI-H522) | GI50 (OVCAR-3) | GI50 (HOP-62) | GI50 (RXF 393) | GI50 (LOX IMVI) | GI50 (CCRF-CEM) | GI50 (MOLT-4) | GI50 (UACC-62)
CC(=O)NC(C)c1ccc(/N=N/N2CCCC2)cc1 (stereo unspecified) | > 100 µM (inactive) | > 100 µM (inactive) | > 100 µM (inactive) | > 100 µM (inactive) | > 100 µM (inactive) | > 100 µM (inactive) | > 100 µM (inactive) | > 100 µM (inactive) | > 100 µM (inactive) | > 100 µM (inactive) | > 100 µM (inactive) | > 100 µM (inactive) | > 100 µM (inactive) | > 100 µM (inactive) | > 100 µM (inactive) | > 100 µM (inactive) | > 100 µM (inactive) |  | 
O=C(c1ccccc1)N(CCCCNC(=O)C(F)(F)F)CCCNC(=O)C(F)(F)F | > 100 µM (inactive) | > 100 µM (inactive) | > 100 µM (inactive) | > 100 µM (inactive) | > 100 µM (inactive) | > 100 µM (inactive) | > 100 µM (inactive) | > 100 µM (inactive) | > 100 µM (inactive) | > 100 µM (inactive) | > 100 µM (inactive) | > 100 µM (inactive) |  |  | > 100 µM (inactive) | > 100 µM (inactive) | > 100 µM (inactive) | > 100 µM (inactive) | > 100 µM (inactive)
CC(=O)NC1=C(Sc2ccc(Cl)cc2)C(=O)c2ccccc2C1=O | 2.09 µM (inactive) | 2.37 µM (inactive) | 2.08 µM (inactive) | 5.28 µM (inactive) | 4.75 µM (inactive) | 4.42 µM (inactive) | 1.76 µM (inactive) | 4.67 µM (inactive) | 3.7 µM (inactive) | 14.6 µM (inactive) | 10.6 µM (inactive) | 0.272 µM (active) | 2.05 µM (inactive) |  | 1.86 µM (inactive) | 3.55 µM (inactive) | 1.06 µM (active) | 0.374 µM (active) | 2.61 µM (inactive)
CCOC(=O)CNC(=O)CNC(=O)CNC(=O)CNNc1c(OCc2ccccc2)c(=O)c1=O | > 100 µM (inactive) | > 100 µM (inactive) | > 100 µM (inactive) | > 100 µM (inactive) | > 100 µM (inactive) | > 100 µM (inactive) | > 100 µM (inactive) | > 100 µM (inactive) | > 100 µM (inactive) | > 100 µM (inactive) | > 100 µM (inactive) | > 100 µM (inactive) | > 100 µM (inactive) | > 100 µM (inactive) | > 100 µM (inactive) |  | > 100 µM (inactive) | > 100 µM (inactive) | > 100 µM (inactive)
COc1ccc(/N=C2\C(=N/c3ccc(OC)cc3)N(S(=O)(=O)c3ccccc3)C(=S)N2c2ccccc2)cc1 | > 100 µM (inactive) | > 100 µM (inactive) | > 100 µM (inactive) | > 100 µM (inactive) | > 100 µM (inactive) | > 100 µM (inactive) | > 100 µM (inactive) | > 100 µM (inactive) | > 100 µM (inactive) | > 100 µM (inactive) | > 100 µM (inactive) | 86.3 µM (inactive) | > 100 µM (inactive) | > 100 µM (inactive) | > 100 µM (inactive) |  |  | > 100 µM (inactive) | > 100 µM (inactive)
CC1=C(C(=O)OC23CC4CC(CC(C4)C2)C3)C(c2ccccc2OC(F)F)C(C(=O)OC23CC4CC(CC(C4)C2)C3)=C(C)N1 (stereo unspecified) | > 100 µM (inactive) | > 100 µM (inactive) | 74.6 µM (inactive) | > 100 µM (inactive) | > 100 µM (inactive) |  | > 100 µM (inactive) | > 100 µM (inactive) | > 100 µM (inactive) | > 100 µM (inactive) | > 100 µM (inactive) | 75.2 µM (inactive) | 50.5 µM (inactive) | > 100 µM (inactive) | > 100 µM (inactive) | > 100 µM (inactive) | > 100 µM (inactive) | 63.7 µM (inactive) | > 100 µM (inactive)
N#Cc1c(/C=C/c2ccccc2)c2c([nH]c1=S)CCCCC2 | > 100 µM (inactive) | > 100 µM (inactive) | > 100 µM (inactive) | > 100 µM (inactive) | 75.5 µM (inactive) | > 100 µM (inactive) | > 100 µM (inactive) | > 100 µM (inactive) | > 100 µM (inactive) | > 100 µM (inactive) | > 100 µM (inactive) | > 100 µM (inactive) | > 100 µM (inactive) | > 100 µM (inactive) | > 100 µM (inactive) | > 100 µM (inactive) | > 100 µM (inactive) | > 100 µM (inactive) | 
CN(C)c1ccccc1CN1CCCN(Cc2ccccc2N(C)C)C1c1ccncc1 | 13.1 µM (inactive) | 24.1 µM (inactive) | 15.9 µM (inactive) | 18.3 µM (inactive) | 19.1 µM (inactive) | 14.4 µM (inactive) | 10.3 µM (inactive) | 20.4 µM (inactive) | 16.7 µM (inactive) | 16.9 µM (inactive) | 21.4 µM (inactive) | 13 µM (inactive) | 14.6 µM (inactive) | 15.4 µM (inactive) | 10.2 µM (inactive) | 13.6 µM (inactive) |  | 18.1 µM (inactive) | 14.4 µM (inactive)
